Laboratory results published in patent publication US20260109674A1, “ALLOSTERIC MODULATION OF MUSCARINIC ACETYLCHOLINE RECEPTOR EFFICACY” (The University of Toledo, priority 2022, published 2026).
Where two headings read alike, the source gives them in different places.

Tests used:
[1] = system: wild-type zebrafish larvae; experiment: Maximum tolerated concentration (MTC) determination in zebrafish larvae; type: in vivo, Danio rerio
Procedure: Determination of maximum tolerated concentration was completed by placing 5 days post fertilization (dpf) wild-type zebrafish larvae in a 24 well plate at 6 fish per well, and one compound concentration per well. […] Death was determined by the absence of heartbeat. Additional endpoints were used to assess toxicity at non-lethal concentrations such as startle capacity (poke stimulus), abnormalities in swimming behavior (loss of dorsoventral balance), and gross morphological deformities (bent body). […] The MTC determination was used to select three doses of each compound (low, medium, high dose) to be used in behavioral assays.

[2] = target: T1, M1 muscarinic receptors expressed in CHO cells (Homo sapiens, UniProt P11229); experiment: [3H]-arachidonic acid release screen with and without ACh and modulator; type: cell-based; conditions: 10 μM modulator
T1 construct: expressed in transfected cells; host or cells: CHO (CHO-hM1, stably transfected)
T1 sequence (P11229 1-460): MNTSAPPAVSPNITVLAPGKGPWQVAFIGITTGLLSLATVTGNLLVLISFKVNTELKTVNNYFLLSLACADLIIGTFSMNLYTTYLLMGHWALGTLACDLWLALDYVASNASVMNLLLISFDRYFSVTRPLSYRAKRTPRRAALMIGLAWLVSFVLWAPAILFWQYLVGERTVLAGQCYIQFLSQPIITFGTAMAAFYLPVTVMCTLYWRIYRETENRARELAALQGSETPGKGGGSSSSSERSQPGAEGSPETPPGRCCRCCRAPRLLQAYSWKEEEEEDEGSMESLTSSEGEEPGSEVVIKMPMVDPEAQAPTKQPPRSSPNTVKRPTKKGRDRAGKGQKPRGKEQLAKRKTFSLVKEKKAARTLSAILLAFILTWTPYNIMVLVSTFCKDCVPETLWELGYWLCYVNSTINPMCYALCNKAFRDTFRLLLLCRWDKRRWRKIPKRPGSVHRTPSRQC
Procedure: CHO cells expressing human M1 muscarinic receptors were cultured at 37° C. in a 5% CO2 atmosphere in F12 medium supplemented with 5% fetal bovine serum, 100 units/mL penicillin, and 100 μg/mL streptomycin.
Measurement of [^3H]AA release was performed. Stably transfected CHO-hM1 or CHO-hM3 cells were seeded on 24-well plates (Greiner Bio-One GmbH, Frickenhausen, Germany) at a density of 5.0×10^4 cells/well in 0.5 ml of F-12 medium. Cells were incubated until they attached (approximately 3 h), followed by the addition of [^3H]AA to a final concentration of 0.05 μCi of [^3H]AA per well. The cells were then grown for 16 to 20 h before the assay was performed. [^3H]AA release was measured in Eagle's basal medium with 20 mM HEPES and 2 mg/ml fatty acid-free bovine serum albumin (EM-BSA). Cells were rinsed twice with EM-BSA, followed by the addition of EM-BSA media containing experimental agents and incubated for 1 h at 37° C. The assay was terminated by aspiration of the media, and the amount of [^3H]AA released was determined by liquid scintillation counting (Beckman-Coulter LS6500).
For some assays, pretreatment with phenoxybenzamine (POB) was employed, as indicated, to reduce the number of available receptors per cell. Stock POB was made up at 10 mM in ethanol and stored at −20° C. Each well was pretreated with 0.5 ml of the appropriate concentration in PBS with 1 mM CaCl2 and 1 mM MgCl2 (PBS++) for 30 min at 37° C., followed by 5 washes with PBS++. After pretreatment, the normal protocol was followed as above.
Tabulated [^3H]AA release data are represented as a fraction of maximal release in the presence of 100 μM ACh or as the fraction of release elicited by the appropriate concentration of ACh alone, as indicated dose-response curves were normalized to the maximal response of ACh without allosteric ligand. Some response curves were analyzed using the empirical four-parameter equation: […]
Disintegration per minute (DPM) values for a single compound were obtained in triplicate, and each compound was evaluated on three separate 24-well plates. The mean values for each condition from each of the three 24-well plates were used for the statistical analysis. The baseline mean was subtracted from each value, then normalized to the mean response produced by 100 μM ACh (set at 1.0). Statistical analyses were completed on the normalized values via one-way repeated measures ANOVA with Tukey's post hoc test. Statistically significant differences are noted as follows: *, p<0.05; **, p<0.01; ***, p<0.001.

[3] = system: wild-type zebrafish larvae; experiment: General locomotor assay in zebrafish larvae (locomotor activity, repetitive behaviors); type: in vivo, Danio rerio; conditions: for response vs control in vivo at 10 µM: Danio rerio, Table 5, 10 μM concentration, N = 12
Procedure: Five days post fertilization (dpf) zebrafish larvae were exposed to a range of nonlethal concentrations of the compounds in a 24-well plate with appropriate controls. The movement of each larval zebrafish was monitored with the Noldus behavior recording system (Noldus Information Technology, Leesburg VA) and quantified using EthoVision® XT 15 software (Noldus Information Technology, Leesburg VA). The plate was immediately placed in the incubator for a 30-minute exposure period. After 30 minutes, the plate was transferred to the Noldus system and swimming behavior was recorded in 100% light for 30 minutes to measure spontaneous swimming behavior. The light was switched off for 10 minutes (dark period) and then switched on for 10 minutes (light period), which was then repeated for two additional cycles. In total, the larvae were exposed to three cycles of alternating 10-minute dark and light periods (100% darkness-to-100% light). […]
All data for exposure and the behavioral end points were analyzed by one-way ANOVA (factor: drug conc) followed by a Dunnett's multiple comparisons test for post hoc significance between drug concentration and control group. Statistically significant differences are noted as follows: *, p<0.05; **, p<0.01; ***, p<0.001.

[4] = after 24-hour exposure, Table 3
[5] = read-out: Variance of Turn Angle
[6] = after 24-hour exposure in separate experiments, Table 5

SMILES	Maximum Tolerated Concentration [1, 4] [µM]	Ratio of response of ACh with modulator to response of ACh alone, 0.1 μM ACh ([2]; Table 1)	Ratio of response of ACh with modulator to response of ACh alone, 100 μM ACh ([2]; Table 1)	Stimulation of [3H]AA release, No ACh (fraction of stimulation above the control) ([2]; Table 1)	response vs control in vivo at 10 µM ([3]; read-out: Angular Velocity) [%]	response vs control in vivo at 10 µM ([3]; read-out: Total Distance Moved) [%]	response vs control in vivo at 10 µM [3, 5] [%]	Maximum Tolerated Concentration [1, 6] [µM]	Ratio of response of ACh with modulator to response of ACh alone, 0.1 μM ACh ([2]; Table 4, N = 4-5)	Ratio of response of ACh with modulator to response of ACh alone, 100 μM ACh ([2]; Table 4, N = 4-5)	Stimulation of [3H]AA release, No ACh (fraction of stimulation above the control) ([2]; Table 4, N = 4-5)	Effect on locomotor activity, angular velocity and turn angle (in words) ([3]; spontaneous swimming period)
COc1cc(CN2C(=O)C(=O)c3ccccc32)cc(OC)c1OC [Compound 8k, 1-(3,4,5-trimethoxybenzyl)indoline-2,3-dione]	30	1.37 ± 0.08	0.83 ± 0.01	0.03 ± 0.00								
O=C1C(=O)N(Cc2ccc(O)cc2)c2ccccc21 [Compound 10, 1-(4-hydroxybenzyl)indoline-2,3-dione]	10	1.60 ± 0.10	0.92 ± 0.06	0.01 ± 0.01								
CCCCc1oc2ccc(NS(C)(=O)=O)cc2c1C(=O)c1ccc(OCCCN(CCCC)CCCC)cc1 [Dronedarone, reference compound]	10	0.25 ± 0.05	0.75 ± 0.07	0.08 ± 0.01								
COc1c(I)cc(CN2C(=O)C(=O)c3cc(OC(F)(F)F)ccc32)cc1I [GK-1-44]					114 ± 19.2	78.5 ± 11.1	105 ± 10.6	10	2.47 ± 0.22	1.67 ± 0.11	0.37 ± 0.04	
COc1c(Br)cc(CN2C(=O)C(=O)c3cc(OC(F)(F)F)ccc32)cc1Br [GK-1-48]					134 ± 16.5	80.1 ± 11.7	109 ± 11.9	3	3.04 ± 0.47	1.66 ± 0.07	0.15 ± 0.01	significant increase in angular velocity
COc1c(Br)cc(Cn2cc(C(=O)O)c(=O)c3ccccc32)cc1Br [GK-1-50]					124 ± 21.8	87.9 ± 10.7	107 ± 11.2	10	2.77 ± 0.49	1.11 ± 0.12	0.47 ± 0.10	
